{"source": "patent US20050043551A1", "about": "“Method of obtaining 2-(2-nitrovinyl)-furan and the use thereof as a coccidiostatic” (priority 2001, published 2005)", "key": {"[1]": {"tested_on": "Coccidia (E. perforans, E. magna, E. media, E. exigua)", "assay": "Oocyst reduction in feces of treated rabbits in production conditions (Example 5)", "format": "in vivo", "settings": "4 μg/ml in drinking water 5 days, before vs after 7 days", "description": "The 2-(2-nitrovynil)-furan, in a formulation similar to that described in the example 2, was dissolved in rabbit's drinking water and administered daily at libitum for 5 days at concentration of 4 μg/ml. It were treated 1 246 newborn, young and adult rabbits of the Chinchilla, New White Zelanda and New Red Zelanda species belonging to 3 rabbit companies. The species of Coccidia present were E. perforans 34%, E. magna 32%, E. media 23% and E. exigua 11%. The amount of oocysts per gram of feces before and after 7 days of the treatment was determined to 20% of all treated animals. The difference between the number of oocysts before and after 7 days of treatment expressed as percentage of oocyst reduction, was taken as efficacy criterium."}, "[2]": {"assay": "In vitro sister chromatide exchange assay", "format": "cell-based", "settings": "with and without metabolic activation", "description": "(§1) In vitro mutagenesis studies were carried out using the micronucleus assay with blockade of cytokinesis with and without metabolic activation, as well as the sister chromatide exchange assay with and without metabolic activation. It was are carried out a theoretical study assisted by computer for the prognosis of the mutagenic activity."}, "[3]": {"format": "cell-based", "description": "as §1"}, "Eimeria tenella": {"tested_on": "Eimeria tenella", "assay": "Artificial infection of chicks with Eimeria tenella oocysts (Example 2)", "format": "in vivo", "settings": "1x10^5 E. tenella oocysts oral; for Weight gain in % during 9 days: 9 days treatment; for Mortality: deaths/12 birds", "description": "To carried out the assay of the action of the synthesized product, the 2-(2nitrovynil)-furan, it was first dissolved first in an alcoholic solution at 3% and later in water, using several concentrations (2, 4, 8 μg/ml) of the alcohol-water solution, as is shown Table 2.\nOne day old, male, free of Coccidia, F1 fatten chicks were used. These birds were maintained in an appropriate condition, free of Coccidia until two weeks of age. For feeding, it was used the same food used to fatten chickens but free of anticoccididals.\n5 groups of 12 poultry with similar weight were formed which received an inoculation of 1×10^5 oocysts of Eimeria tenella by oral route, using a esophagic canula. The treatment began when chicks had 15 days of age, 24 hours before receiving the inoculation, during a period of 9 days.\nTo evaluate the effectiveness of the product the gain of weight (% referred to the initial weight) and the death number approaches were used in each tratment."}, "E. tenella": {"tested_on": "E. tenella", "assay": "Leghorn egg-laying hens naturally infected with E. tenella (Example 3)", "format": "in vivo", "settings": "4 μg/mL in drinking water twice a day for 5 days, deaths/2000 birds", "excerpt": "The 2-(2-nitrovynil)-furan, in a formulation similar to that described in the example 2, was applied, in the drinking water twice a day (8 am and 12 m) for 5 days, to 2000 Leghorn egg-laying hens of 56-84 days of age, infected naturally with E. tenella. Two houses highly infected by caecal coccidiosis with 2000 birds each were there was an average of 119 deaths per house in 5 days were selected. The diagnoses was made by the presence of bloody diarrheas, the observation of typical lesions in the blind intestine and abundant presence of parasite oocysts in the caecal content. Infected birds in a house was left as nontreated control and another no infected as neither infected nor treated control having the same range of age.\nTo evaluate the effectiveness of the product the approach described in the example 2 was used, except that as weight control. Except that as weight control 10 birds of each pen were randomly selected and weighed at the beginning and the end of the treatment."}, "[4]": {"assay": "Oral Half Lethal Dose (LD50) in rats", "format": "in vivo", "settings": "several solvents, female and male Sprague Dawley rats"}, "[5]": {"tested_on": "intestinal Coccidias (E. perforans, E. magna, E. media, E. exigua)", "assay": "Rabbits inoculated with oocysts of intestinal Eimeria (Example 4)", "format": "in vivo", "settings": "for Weight gain in % during 7 days: 4 μg/mL in drinking water for 5 days; for Mortality: 4 μg/mL, deaths/3 animals", "description": "The 2-(2-nitrovynil)-furan, in a formulation similar to that described in the example 2, was dissolved in rabbits' drinking water and administered daily at libitum for 5 days. Two experiments (I, II), each one with 9 rabbits, were carried out. Each experiment had 3 treatments of 3 animals each one. Among treatments an infected no treated group and a group neither infected nor treated were considered.. In the 1st experiment each rabbit received 61×10^3 those of the 2nd experiment 116×10^3 oocysts of intestinal Coccidias. The present species were E. perforans 38%, E. magna 30%, E. media 22% and E. exigua 10%, with a 97.3% of sporulation. The initial and final weight difference and the deaths of animals after 7 days treatment was used as evaluation criteria."}, "[6]": {"assay": "Oral Half Lethal Dose (LD50) in hens", "format": "in vivo", "settings": "several solvents, mature Leghorn hens"}, "[7]": {"settings": "Experiment I, 61 x 10^3 oocysts"}, "[8]": {"settings": "Experiment II, 116 x 10^3 oocysts"}}, "note": "Several values for one entry are separate records, joined by “and”; a condition that tells them apart may be missing. Identical values can stand only once.", "data": [{"smiles": "O=[N+]([O-])C=Cc1ccco1", "note": "[2-(2-nitrovynil)-furan]", "values": [{"measurement": "Reduction in % (oocysts per gram of feces)", "setting": "[1]; Company 1, rabbits", "value": 90, "unit": "%"}, {"measurement": "Reduction in % (oocysts per gram of feces)", "setting": "[1]; Company 2, rabbits", "value": 99, "unit": "%"}, {"measurement": "Reduction in % (oocysts per gram of feces)", "setting": "[1]; Company 3, rabbits", "value": 90, "unit": "%"}, {"measurement": "Mutagenic activity, sister chromatide exchange assay", "setting": "[2]", "value": "did not shown mutagenic activity"}, {"measurement": "Mutagenic activity, micronucleus assay", "setting": "[3]", "value": "did not shown mutagenic activity"}, {"measurement": "Weight gain in % during 9 days", "setting": "Eimeria tenella; dose 2 μg/mL", "value": 78.79, "unit": "%"}, {"measurement": "Mortality", "setting": "Eimeria tenella; dose 2 μg/mL", "value": "1/12"}, {"measurement": "Mortality", "setting": "Eimeria tenella; dose 4 μg/mL", "value": "no deaths and 0/12"}, {"measurement": "Weight gain in % during 9 days", "setting": "Eimeria tenella; dose 8 μg/mL", "value": 63.95, "unit": "%"}, {"measurement": "Mortality", "setting": "Eimeria tenella; dose 8 μg/mL", "value": "0/12"}, {"measurement": "Mortality in 5 days", "setting": "E. tenella", "value": "remarkable decrease of mortality and 15/2000"}, {"measurement": "Half Lethal Dose (LD50)", "setting": "[4]", "value": "171.91 mg/kg of body mass"}, {"measurement": "Weight gain in % during 7 days", "setting": "[5]; [7]", "value": 4, "unit": "%"}, {"measurement": "Mortality", "setting": "[5]; [7]", "value": "no mortality and 0/3"}, {"measurement": "Weight gain in % during 7 days", "setting": "[5]; [8]", "value": 3, "unit": "%"}, {"measurement": "Mortality", "setting": "[5]; [8]", "value": "no deaths and 0/3"}, {"measurement": "Half Lethal Dose (LD50)", "setting": "[6]", "value": "1.02 g/kg of body mass"}]}]}
